{"source": "ChEMBL document CHEMBL1155598", "about": "“Microcyclamide, a cytotoxic cyclic hexapeptide from the cyanobacterium Microcystis aeruginosa” (J Nat Prod, 2000)", "system": "P388", "assay": "Cytotoxicity against mouse P388 cells after 3 days by MTT assay", "assay_type": "functional, cell-based", "details": "P388, 72 h", "data": [{"smiles": "CC[C@H](C)[C@@H]1NC(=O)c2nc(oc2C)[C@H](C)NC(=O)c2csc(n2)[C@H](Cc2cncn2C)NC(=O)c2csc1n2", "note": "[MICROCYCLAMIDE]", "values": [{"measurement": "IC50", "result": 1.2, "unit": "µg/mL"}]}]}
